Source: ChEMBL document CHEMBL4418287, “Lysyl oxidase-like 2 inhibitors and uses thereof” (2018)
Activity calls are given as the source filed them.

Legend:
Type in all cases: functional, organism-based
Mus musculus [1] = experiment: Antifibrotic activity in C57BL/6 mouse model of bleomycin-induced lung fibrosis assessed as reduction in cross linked collagen level in lung at 60 mg/kg, po pre-treated 1 hr to 1 day before bleomycin injection and measured after 14 to 28 days by Masson's trichrome staining based assay
Mus musculus [2] = experiment: Antifibrotic activity in C57BL/6 mouse model of bleomycin-induced lung fibrosis assessed as reduction in collagen level in lung at 60 mg/kg, po pre-treated 1 hr to 1 day before bleomycin injection and measured after 14 to 28 days by hydroxyproline assay
Mus musculus [3] = experiment: Antifibrotic activity in C57BL/6 mouse model of bleomycin-induced lung fibrosis assessed as reduction in hydroxyproline in lung homogenates at 60 mg/kg, po pre-treated 1 hr to 1 day before bleomycin injection and measured after 14 to 28 days by chloramine T and Erlich's solution based assay
Mus musculus [4] = experiment: Antifibrotic activity in C57BL/6 mouse model of bleomycin-induced lung fibrosis assessed as reduction in cross linked collagen level in lung at 60 mg/kg, po pre-treated 1 hr to 1 day before bleomycin injection and measured after 14 to 28 days by Picro-Sirius staining based assay
Mus musculus [5] = experiment: Antifibrotic activity in C57BL/6 mouse model of bleomycin-induced lung fibrosis assessed as reduction in alpha smooth muscle actin level in lung at 60 mg/kg, po pre-treated 1 hr to 1 day before bleomycin injection and measured after 14 to 28 days by immunohistochemistry analysis

Measured: Activity

NCc1cc(Oc2cccc(C(=O)NCc3ccnc(Cl)c3)c2)ncn1
active: all assays above

NCc1cc(Oc2cccc(C(=O)N3CCN(c4ccccc4)CC3)c2)ncn1
active: all assays above
